# Where two headings read alike, the source gives them in different places.
# Key:
# [1] = Compound solubility determination (gross and equilibrium solubility; FaSSIF, FeSSIF, pH 7.4 PBS, pH 1.0 0.1N HCl, pH 4.5 sodium citrate); format: physicochemical; settings: thermodynamic from solid
# Description: Compound Solubility Determination
# An amount of 3 mg solid compound with LC-MS purity ≧95% was required. This amount was split between 3 different glass vials (1.8 ml volume each), placing 1 mg compound into each one.
# Organic solvents of HPLC grade were used. Ultra pure water (Milli-Q grade) was used. Buffers were prepared with ultra pure water and filtered using 0.45μ cameo filters. The compositions of each solvent employed in this assay are described below (part III).
# 2. Determination of Equilibrium Solubility (Assuming Chemical Stability in the Desired Solvent is not a Problem).
# For each of the three vial samples prepared as described above, in which the amount of compound was totally dissolved, the following procedure was subsequently carried out: • a) A small amount (approx. 0.1 mg) of additional solid compound was added to the vial to maintain an excess of the compound in the mixture in the form of undissolved solid. • b) The samples were magnetically stirred for 24 hr. If required, additional solid compound (0.1 mg) was added to maintain excess of it and then the samples were stirred again. • c) Then the samples were filtered (Millipore Milex filters nylon 0.2 um) and three aliquots were taken (one from each of the three vials) and analysed by LC-MS. • d) The pH of the final solution in each sample was measured with a pH-meter (WTW pH330i and a pH-electrode Sentix 41).
# 3. LC-MS Assay for Analytical Quantification
# All filtered aliquots were analysed by LC-MS. The analysis was carried out with a Luna 5 μC18 (2) column 4.6×150 mm, using a HP1100 HPLC instrument interfaced with a Waters ZMD-2000 MS spectrometer. The concentration of the final sample as prepared above was calculated from that of a reference calibration curve obtained from serial dilutions of a 2 mM solution of the compound under investigation in DMSO (Aldrich cat. ref.: 27685-5) stock solution.
# The analysis of all LC-MS data was performed with MassLynx 3.4 software. Statistical and graphic analysis of data was performed using Microsoft Excel. The concentration (uM) and solubility (ug/ml) for each compound was calculated using the peak areas from the sample and those from the calibration curve.
# A) FaSSIF is a solvent which simulates the Fasted State of the Intestinal Fluid. (FaSSIF: Fasted State Simulated Intestinal Fluid).
# B) FeSSIF is a solvent which simulates the Fed State of the Intestinal Fluid. (FeSSIF: Fed State Simulated Intestinal Fluid).
# C) Solubility at pH 7.4 was determined in phosphate buffered saline (PBS) (Fluka cat. ref: 79383)
# D) Solubility at pH 1.0 was determined in 0.1N HCl solution (Scharlau AL0744010C)
# E) Solubility at pH 4.5 was determined in sodium citrate 0.5M solution. (Aldrich 25, 127-5)
# Plasmodium falciparum = assay: In vitro anti-malarial activity against Plasmodium falciparum, IC50 assay / [3H]-hypoxanthine incorporation assay; format: cell-based; settings: Erythrocyte, parasitized red blood cells, 48 hours
# Description: In Vitro Anti-malarial Activity Against Plasmodium falciparum
# IC50 Assay/[^3H]-Hypoxanthine Assay
# Plasmodium falciparum strains.
# The culture medium comprised RPMI 1640 with 25 mM HEPES, sodium bicarbonate and glutamine (GIBCO™ cat. ref.: 52400), supplemented with 10% of pooled human sera AB (Irvine Scientific, cat. ref.: 5009) and HT supplement (0.15 mM hypoxanthine and 24 μM thymidine), (GIBCO™ cat. ref.: 41065). Human sera were decomplemented 30 min. at 56° C., aliquoted and stored frozen at −20° C. until use in this culture medium.
# Red blood cells O+ stock suspensions were prepared from whole blood bags coming from incomplete blood donation, provided by the Spanish Red Cross (<25 days after sampling). This “whole blood” was aliquoted and stored at 4° C.
# To prepare red blood cells for the assay, the whole blood was centrifuged and washed 3 times with RPMI without serum. The upper phase, containing white blood cells was removed. The washed red blood cells were kept as a 50% suspension in complete medium. The prepared cells were stored at 4° C. and were employed in the assay at any time up to 4 days after preparation.
# Test compounds were dissolved at 2 mg/ml in 100% DMSO on the day of the assay. If necessary, complete dissolution was achieved by gentle heating (the mixture was heated at a temperature <37° C.) and sonication (sonication bath).
# For IC50 determinations, 10 serial 2-fold dilutions were prepared in complete medium in the presence of a constant amount of DMSO.
# Plasmodium falciparum strains were maintained in complete medium at an hematocrit of 5% in continuous culture using a method adapted from Trager and Jensen (1, 2).
# The parasitemia was calculated by counting the percentage of parasitized erythrocytes by optical microscopy. Thin films of blood were made every day from each culture flask, fixed with methanol and stained for 10 min. in Giemsa (Merck, cat ref.: 1.09204) at 10% in buffered water pH 7.2. The glass slides were observed and counted with an optical microscope (Nikon, Eclipse E200) equipped with a 100× immersion oil objective.
# The culture was maintained at an hematocrit of 5%, with a daily change of medium and was diluted when parasitemia had reached about 5%.
# [^3H] Hypoxanthine incorporation assay was conducted using a method adapted from Desjardins et al. (3). The assays were performed in 96 wells flat bottom microplates.
# 1. Serial dilutions of the test compounds (50 μl of a 5× solution/well) were deposited in duplicate. Compounds of the invention were tested in this assay. Chloroquine and Atovaquone were used as control compounds for each assay.
# 3. [^3H]-Hypoxanthine (Amersham Biosciences, cat. ref.: TRK74) was added extemporaneously to the inoculum suspension at a concentration of 1 μCi/ml (equating to […]). 200 μl of the resulting suspension was distributed into each well (other than the control well H12 described below) leading to a final volume of 250 μl per well, at 2% of hematocrit and 0.5% of parasitemia/well.
# 4. In each plate, 2 columns were reserved for control wells: • Column 11: Positive control wells: PRBCs with 0.2% DMSO—(i) to determine DMSO solvent effect on parasite growth (at a final concentration of 0.2%) and (ii) to compare with cultures treated with test compounds. • Column 12 (comprising wells A12-H12): • A12-D12—Background value wells: Uninfected RBCs—blank control to obtain the background reading from RBCs without parasites. • E12-G12—Solvent effect wells: PRBCs without DMSO—to determine DMSO solvent effect on PRBCs by comparing these wells with column 11 wells. • H12-Non-radioactive well: PRBCs with cold hypoxanthine—(i) to carry out a thin blood film to determine parasitemia value after incubation by microscopy and (ii) to ensure that the parasites have grown properly during the assay. (200 μl of inoculum suspension was prepared as described above (Items 2 and 3) but with non-tritiated hypoxanthine instead of [3H]-hypoxanthine, then added to this well to a final volume of 250 μl). […]
# [2] = 0.1N HCl solution, simulated gastric fluid, pH 1 (HCl), read-out: Solubility at pH 1 (HCl)
# [3] = FaSSIF (fasted state simulated intestinal fluid), fassif, read-out: Solubility in FaSSIF
# [4] = phosphate buffered saline (PBS), aqueous buffer, pH 7.4 (PBS), read-out: Solubility at pH 7.4 (PBS)
# [5] = sodium citrate 0.5M solution, aqueous buffer, pH 4.5 (Na citrate), read-out: Solubility at pH 4.5 (Na citrate)
# [6] = aqueous buffer, pH 4.5 (Na citrate), read-out: Solubility at pH 4.5 (Na citrate)
# [7] = aqueous buffer, pH 7.4 (PBS), read-out: Solubility at pH 7.4 (PBS)
# [8] = fassif, read-out: Solubility in FaSSIF
# [9] = simulated gastric fluid, pH 1 (HCl), read-out: Solubility at pH 1 (HCl)
# [10] = FeSSIF (fed state simulated intestinal fluid), fessif, read-out: Solubility in FeSSIF
"solubility at 24 h [1, 2] [µg/mL]","solubility at 24 h [1, 3] [µg/mL]","solubility at 24 h [1, 4] [µg/mL]","solubility at 24 h [1, 5] [µg/mL]",IC50 (Plasmodium falciparum) [µg/mL],"solubility at 24 h [1, 10] [µg/mL]",SMILES,"solubility at 24 h [1, 6] [µg/mL]","solubility at 24 h [1, 7] [µg/mL]","solubility at 24 h [1, 8] [µg/mL]","solubility at 24 h [1, 9] [µg/mL]","solubility at 24 h ([1]; fessif, read-out: Solubility in FeSSIF) [µg/mL]"
≥ 50,1 to 5,1 to 5,1 to 5,< 0.125,,"Cc1[nH]c(C)c(-c2ccc(-c3ccc(F)cc3)nc2)c(=O)c1Cl [Example 36, 5-Chloro-6′-(4-fluorophenyl)-2,6-dimethyl-3,3′-bipyridin-4(1H)-one]",,,,,
≥ 50,10 to 50,1 to 5,10 to 50,< 0.125,,"Cc1[nH]c(C)c(-c2ccc(CCc3cccc(C(F)(F)F)c3)nc2)c(=O)c1Cl [Example 44, 5-Chloro-2,6-dimethyl-6′-{2-[3-(trifluoromethyl)phenyl]ethyl}-3,3′-bipyridin-4(1H)-one]",,,,,
≥ 50,1 to 5,1 to 5,5 to 10,< 0.125,,"Cc1[nH]c(C)c(-c2ccc(-c3ccccc3F)nc2)c(=O)c1Br [Example 23, 5-Bromo-6′-(2-fluorophenyl)-2,6-dimethyl-3,3′-bipyridin-4(1H)-one]",,,,,
≥ 50,1 to 5,< 1,< 1,< 0.125,10 to 50,"Cc1[nH]c(C)c(-c2ccc(-c3cc(C(F)(F)F)ccc3F)nc2)c(=O)c1Cl [Example 56, 5-chloro-6′-[2-fluoro-5-(trifluoromethyl)phenyl]-2,6-dimethyl-3,3′-bipyridin-4(1H)-one]",,,,,
10 to 50,10 to 50,< 1,< 1,< 0.125,,"CCCCc1ccc(-c2ccc(-c3c(C)[nH]c(C)c(Br)c3=O)cn2)cc1 [Example 26, 5-Bromo-6′-(4-n-butylphenyl)-2,6-dimethyl-3,3′-bipyridin-4(1H)-one]",,,,,
≥ 50,5 to 10,< 1,< 1,< 0.125,10 to 50,"Cc1[nH]c(C)c(-c2ccc(-c3cc(C(F)(F)F)ccc3Cl)nc2)c(=O)c1Cl [Example 57, 5-chloro-6′-[2-chloro-5-(trifluoromethyl)phenyl]-2,6-dimethyl-3,3′-bipyridin-4(1H)-one]",,,,,
≥ 50,1 to 5,1 to 5,1 to 5,< 0.125,,"Cc1[nH]c(C)c(-c2ccc(-c3ccc(F)cc3)nc2)c(=O)c1Br [Example 22, 5-Bromo-6′-(4-fluorophenyl)-2,6-dimethyl-3,3′-bipyridin-4(1H)-one]",,,,,

# Continued, molecule first:
SMILES,"solubility at 24 h [1, 2] [µg/mL]","solubility at 24 h [1, 3] [µg/mL]","solubility at 24 h [1, 4] [µg/mL]","solubility at 24 h [1, 5] [µg/mL]",IC50 (Plasmodium falciparum) [µg/mL],"solubility at 24 h [1, 10] [µg/mL]","solubility at 24 h [1, 6] [µg/mL]","solubility at 24 h [1, 7] [µg/mL]","solubility at 24 h [1, 8] [µg/mL]","solubility at 24 h [1, 9] [µg/mL]","solubility at 24 h ([1]; fessif, read-out: Solubility in FeSSIF) [µg/mL]"
"Cc1[nH]c(C)c(-c2ccc(OCc3ccc(C(F)(F)F)cc3)nc2)c(=O)c1Cl [Example 10, 5-Chloro-2,6-dimethyl-6′-{[4-(trifluoromethyl)benzyl]oxy}-3,3′-bipyridin-4(1H)-one]",,,,,< 0.125,,< 1,< 1,< 1,5 to 10,
"CCCCCCCCCc1cnc(-c2c(C)[nH]c(C)c(Cl)c2=O)nc1 [Example 50, 3-Chloro-2,6-dimethyl-5-(5-nonyl-2-pyrimidinyl)-4(1H)-pyridinone]",,,,,< 0.125,,< 1,< 1,< 1,5 to 10,1 to 5
"Cc1[nH]c(C)c(-c2ccc(-c3cccc(Cl)c3)nc2)c(=O)c1Br [Example 20, 5-Bromo-6′-(3-chlorophenyl)-2,6-dimethyl-3,3′-bipyridin-4(1H)-one]",≥ 50,< 1,< 1,< 1,< 0.125,,,,,,
"Cc1[nH]c(C)c(-c2ccc(-c3ccc(C(F)(F)F)cc3)nc2)c(=O)c1Br [Example 16, 5-Bromo-2,6-dimethyl-6′-{4-[trifluoromethyl]phenyl}-3,3′-bipyridin-4(1H)-one]",10 to 50,< 1,< 1,< 1,< 0.125,,,,,,
"Cc1[nH]c(C)c(-c2ccc(-c3cc(C(F)(F)F)cc(C(F)(F)F)c3)nc2)c(=O)c1Br [Example 25, 5-Bromo-2,6-dimethyl-6′-{3,5-bis[trifluoromethyl]phenyl}-3,3′-bipyridin-4(1H)-one]",1 to 5,< 1,< 1,< 1,< 0.125,,,,,,
"Cc1[nH]c(C)c(-c2ccc(Oc3ccc(OC(F)(F)F)cc3)nc2)c(=O)c1Cl [Example 49, 5-Chloro-2,6-dimethyl-6′-({4-[(trifluoromethyl)oxy]phenyl}oxy)-3,3′-bipyridin-4(1H)-one]",5 to 10,< 1,< 1,< 1,< 0.125,< 1,,,,,
"Cc1[nH]c(C)c(-c2ccc(-c3ccc(C(F)(F)F)cc3C(F)(F)F)nc2)c(=O)c1Br [Example 24, 5-Bromo-2,6-dimethyl-6′-{2,4-bis[trifluoromethyl]phenyl}-3,3′-bipyridin-4(1H)-one]",5 to 10,< 1,< 1,< 1,< 0.125,,,,,,

# Source: patent publication US7579353B2, “Pyridinone derivatives against malaria” (Glaxo Group Limited, priority 2005, dated 2009)
